Data as given in PubChem BioAssay AID2027 (NMMLSC, 2009).

Molecular target: Ras-related C3 botulinum toxin substrate 1 (Homo sapiens) (UniProt P63000)
Assay: analog inhibition of wildtype Rac1 nucleotide binding – biochemical, oxadiazole analogs, multiplex bead flow cytometry, SAR follow-up (AID 2027)
Conditions: GST-Rac1 beads, Bodipy-FL-GTP binding, Ki calculated from EC50

| SMILES | Ki |
| --- | --- |
| Cc1ccc(C)c(N2CCN(C(=O)CCc3nc(-c4ccccc4C)no3)CC2)c1 | 160 nM |
| Cc1ccc(C)c(N2CCN(C(=O)CCc3nc(-c4ccc(Cl)cc4)no3)CC2)c1 | 170 nM |
| COc1ccc(-c2noc(CCC(=O)N3CCN(c4ccc(OC)cc4)CC3)n2)cc1 | 50 nM |
| COc1ccc(-c2noc(CCCCC(=O)N3CCN(c4cc(C)ccc4C)CC3)n2)cc1 | 1960 nM |
| Cc1cccc(-c2noc(CCC(=O)N3CCN(c4cc(C)ccc4C)CC3)n2)c1 | 110 nM |
| Cc1ccc(C)c(N2CCN(C(=O)CCc3nc(-c4ccc(N(C)C)cc4)no3)CC2)c1 | 260 nM |
| COc1ccc(-c2noc(CC(=O)N3CCN(c4cc(C)ccc4C)CC3)n2)cc1 | 700 nM |
| COc1ccc(-c2noc(CCC(=O)N3CCN(c4cccc(C)c4C)CC3)n2)cc1 | 120 nM |
| COc1ccc(-c2noc(CCC(=O)N3CCN(c4ccc(F)cc4)CC3)n2)cc1 | 150 nM |
| COc1ccc(-c2noc(CCC(=O)N3CCN(c4ccccc4C(F)(F)F)CC3)n2)cc1 | 160 nM |
| Cc1ccc(C)c(N2CCN(C(=O)CCc3nc(-c4ccccc4)no3)CC2)c1 | 150 nM |
| Cc1ccc(C)c(N2CCN(C(=O)CCc3nc(-c4ccc(C(F)(F)F)cc4)no3)CC2)c1 | 200 nM |
| COc1ccc(-c2noc(CCC(=O)N3CCN(c4ccccc4C)CC3)n2)cc1 | 130 nM |
| Cc1ccc(C)c(N2CCN(C(=O)CCc3nc(-c4cccc(C(F)(F)F)c4)no3)CC2)c1 | 230 nM |
| COc1ccc(-c2noc(CCC(=O)N3CCN(c4ccccc4OC)CC3)n2)cc1 | 210 nM |
| Cc1ccc(C)c(N2CCN(C(=O)CCc3nc(-c4ccccc4Br)no3)CC2)c1 | 160 nM |
| COc1cccc(-c2noc(CCC(=O)N3CCN(c4cc(C)ccc4C)CC3)n2)c1 | 570 nM |
| COc1ccccc1-c1noc(CCC(=O)N2CCN(c3cc(C)ccc3C)CC2)n1 | 1410 nM |

| SMILES | Ki |
| --- | --- |
| Cc1ccc(C)c(N2CCN(C(=O)CCc3nc(-c4ccccc4Cl)no3)CC2)c1 | 110 nM |
| COc1ccc(-c2noc(CCC(=O)N3CCN(c4ccccc4F)CC3)n2)cc1 | 100 nM |
| COc1ccc(-c2noc(CCC(=O)N3CCN(c4ccccc4Cl)CC3)n2)cc1 | 310 nM |
| Cc1ccc(C)c(N2CCN(C(=O)CCc3nc(-c4cccc(F)c4)no3)CC2)c1 | 140 nM |
| Cc1ccc(C)c(N2CCN(C(=O)CCc3nc(-c4ccc(F)cc4)no3)CC2)c1 | 120 nM |
| Cc1ccc(C)c(N2CCN(C(=O)CCc3nc(-c4cccc(Br)c4)no3)CC2)c1 | 160 nM |
| COc1ccc(-c2noc(CCC(=O)N3CCN(c4ccccc4Br)CC3)n2)cc1 | 160 nM |
| Cc1ccc(C)c(N2CCN(C(=O)CCc3nc(-c4ccc(Br)cc4)no3)CC2)c1 | 280 nM |
| COc1ccc(-c2noc(CCC(=O)N3CCN(c4ccc(Br)cc4)CC3)n2)cc1 | 20 nM |
| COc1ccc(-c2noc(CCC(=O)N3CCC(c4cc(C)ccc4C)CC3)n2)cc1 | 110 nM |
| Cc1ccc(C)c(N2CCN(C(=O)CCc3nc(-c4ccccc4F)no3)CC2)c1 | 170 nM |
| COc1ccc(-c2noc(CCC(=O)N3CCN(c4ccc(C)cc4)CC3)n2)cc1 | 250 nM |
| Cc1ccc(C)c(N2CCN(C(=O)CCc3nc(-c4ccccc4C(F)(F)F)no3)CC2)c1 | 200 nM |
| Cc1ccc(-c2noc(CCC(=O)N3CCN(c4cc(C)ccc4C)CC3)n2)cc1 | 300 nM |
| COc1ccc(-c2noc(CCC(=O)N3CCN(c4cc(C)ccc4C)CC3)n2)cc1 | 470 nM |
| COc1ccc(-c2coc(CCC(=O)N3CCN(c4cc(C)ccc4C)CC3)n2)cc1 | 210 nM |
| Cc1ccc(C)c(N2CCN(C(=O)CCc3nc(-c4cccc(Cl)c4)no3)CC2)c1 | 460 nM |
| COc1ccc(-c2noc(CCCC(=O)N3CCN(c4cc(C)ccc4C)CC3)n2)cc1 | 350 nM |
